Data as given in ChEMBL document CHEMBL1201862, “PubChem BioAssay data set” (2004).
Calls of active or inactive are those of the source.

Experiments:
[1] = target: T1, Sentrin-specific protease 7 (Homo sapiens, UniProt Q9BQF6); assay type: functional;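 also: Luminescence-based dose-response confirmation of ultra-high-throughput screening hits, measuring inhibition of SENP7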
T1 sequence (Q9BQF6 whole entry): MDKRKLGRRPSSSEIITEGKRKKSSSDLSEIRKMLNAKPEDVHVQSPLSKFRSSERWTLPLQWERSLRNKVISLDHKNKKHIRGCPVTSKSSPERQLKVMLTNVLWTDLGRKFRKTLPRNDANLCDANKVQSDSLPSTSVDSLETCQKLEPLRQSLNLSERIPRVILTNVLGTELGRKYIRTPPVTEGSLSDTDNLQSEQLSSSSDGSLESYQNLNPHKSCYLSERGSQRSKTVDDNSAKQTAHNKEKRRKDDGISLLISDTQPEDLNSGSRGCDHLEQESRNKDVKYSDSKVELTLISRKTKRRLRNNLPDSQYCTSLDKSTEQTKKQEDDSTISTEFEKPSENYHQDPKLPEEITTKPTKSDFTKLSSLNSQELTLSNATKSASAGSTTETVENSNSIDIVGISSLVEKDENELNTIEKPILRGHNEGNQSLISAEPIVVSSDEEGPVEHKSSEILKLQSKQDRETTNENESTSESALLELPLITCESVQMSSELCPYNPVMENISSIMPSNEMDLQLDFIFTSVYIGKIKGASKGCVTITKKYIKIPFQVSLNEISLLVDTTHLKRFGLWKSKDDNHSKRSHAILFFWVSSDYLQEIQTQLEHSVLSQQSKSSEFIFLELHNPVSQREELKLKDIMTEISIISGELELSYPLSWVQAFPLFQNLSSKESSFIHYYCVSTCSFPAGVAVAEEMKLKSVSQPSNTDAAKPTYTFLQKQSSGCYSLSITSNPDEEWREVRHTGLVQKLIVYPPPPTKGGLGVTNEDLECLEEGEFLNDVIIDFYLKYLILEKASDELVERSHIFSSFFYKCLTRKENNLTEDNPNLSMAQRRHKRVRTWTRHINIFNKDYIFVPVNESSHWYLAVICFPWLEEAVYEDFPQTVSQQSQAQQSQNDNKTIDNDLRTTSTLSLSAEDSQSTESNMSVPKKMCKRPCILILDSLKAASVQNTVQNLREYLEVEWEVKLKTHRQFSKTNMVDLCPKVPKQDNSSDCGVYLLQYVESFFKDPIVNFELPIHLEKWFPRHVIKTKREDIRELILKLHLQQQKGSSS

[2] = target: T2, Sentrin-specific protease 6 (Homo sapiens, UniProt Q9GZR1); assay type: functional;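 also: Luminescence-based dose-response confirmatory assay of SENP6 inhibition, following up an ultra-high-throughput screen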
T2 sequence (Q9GZR1 whole entry): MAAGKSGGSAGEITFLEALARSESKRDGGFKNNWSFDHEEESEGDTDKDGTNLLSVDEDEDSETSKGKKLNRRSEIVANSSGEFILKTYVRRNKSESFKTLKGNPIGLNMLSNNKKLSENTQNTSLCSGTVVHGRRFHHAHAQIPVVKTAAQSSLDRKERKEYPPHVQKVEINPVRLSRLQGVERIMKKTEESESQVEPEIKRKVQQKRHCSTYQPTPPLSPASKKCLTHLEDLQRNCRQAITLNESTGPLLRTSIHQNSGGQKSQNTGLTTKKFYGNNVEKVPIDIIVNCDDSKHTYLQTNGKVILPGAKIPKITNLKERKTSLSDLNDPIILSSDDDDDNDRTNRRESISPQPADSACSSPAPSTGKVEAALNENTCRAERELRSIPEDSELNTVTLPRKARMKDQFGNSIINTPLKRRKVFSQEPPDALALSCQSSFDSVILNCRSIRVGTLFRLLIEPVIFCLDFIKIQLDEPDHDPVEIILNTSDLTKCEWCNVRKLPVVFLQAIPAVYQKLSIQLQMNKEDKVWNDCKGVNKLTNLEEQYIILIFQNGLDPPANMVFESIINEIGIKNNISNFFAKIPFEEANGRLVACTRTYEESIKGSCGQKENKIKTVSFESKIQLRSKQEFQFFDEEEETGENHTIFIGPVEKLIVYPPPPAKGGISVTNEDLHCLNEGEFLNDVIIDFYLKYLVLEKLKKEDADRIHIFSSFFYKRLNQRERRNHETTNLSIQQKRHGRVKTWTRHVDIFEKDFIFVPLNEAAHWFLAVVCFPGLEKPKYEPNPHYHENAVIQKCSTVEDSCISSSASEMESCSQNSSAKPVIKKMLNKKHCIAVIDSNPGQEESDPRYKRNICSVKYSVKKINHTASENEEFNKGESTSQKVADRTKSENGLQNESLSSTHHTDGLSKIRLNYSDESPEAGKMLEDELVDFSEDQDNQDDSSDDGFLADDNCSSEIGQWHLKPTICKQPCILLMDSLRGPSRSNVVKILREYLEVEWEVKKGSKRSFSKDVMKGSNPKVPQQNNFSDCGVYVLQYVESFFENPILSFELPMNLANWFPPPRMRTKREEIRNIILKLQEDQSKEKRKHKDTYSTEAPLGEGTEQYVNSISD

[3] = target: T3, Caspase-3 (Homo sapiens, UniProt P42574); assay type: functional;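 also: Dose-response selectivity test against caspase-3 for candidate inhibitors of sentrin-specific proteases (SENPs)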
T3 sequence (P42574 whole entry): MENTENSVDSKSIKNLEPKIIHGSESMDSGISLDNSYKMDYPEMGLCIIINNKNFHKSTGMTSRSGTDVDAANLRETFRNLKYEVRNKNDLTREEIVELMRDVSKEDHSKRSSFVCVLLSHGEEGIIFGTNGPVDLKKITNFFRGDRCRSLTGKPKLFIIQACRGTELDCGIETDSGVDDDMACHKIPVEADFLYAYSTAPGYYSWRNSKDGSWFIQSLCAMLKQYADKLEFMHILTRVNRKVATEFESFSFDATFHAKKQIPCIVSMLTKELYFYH

[4] = target: T4, Sentrin-specific protease 8 (Homo sapiens, UniProt Q96LD8); assay type: functional;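 also: luminescence read-out of SENP8 inhibition, dose-response confirmation following an ultra-high-throughput screen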
T4 sequence (Q96LD8 whole entry): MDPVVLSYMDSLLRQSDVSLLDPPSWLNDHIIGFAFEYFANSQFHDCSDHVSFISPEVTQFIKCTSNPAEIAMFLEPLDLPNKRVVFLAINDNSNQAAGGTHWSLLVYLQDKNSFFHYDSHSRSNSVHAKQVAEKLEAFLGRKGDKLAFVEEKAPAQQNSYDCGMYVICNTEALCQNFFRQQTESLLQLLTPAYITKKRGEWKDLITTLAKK

[5] = test system: CHO; test: CHO cell viability loss, potency – luminescence, cytotoxicity control for TLR9-MyD88 binding inhibitor project, dose response (AID 588339); assay type: functional, cell-based, hamster; details: Cricetulus griseus;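 also: CHO cells stably coexpressing TLR9 and MyD88 fusions from primary screen; compound exposure lasted 48 hours before viability readout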
[6] = target: Beta Lactamase (Pseudomonas aeruginosa, UniProt Q932Y6); test: BLA reporter interference, concentration series – BLA reporter cells, FRET fluorescence, artefact control for TLR9-MyD88 binding inhibitor project, dose response (AID 588341); assay type: cell-based;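 also: cell based assay in CHO-K1 cells stably expressing beta-lactamase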
[7] = target: Luciferin 4-monooxygenase (Photinus pyralis, UniProt P08659); test: inhibition of purified Photinus pyralis luciferase – biochemical, luminescence, dose response (AID 1891)
[8] = target: Endoplasmic reticulum aminopeptidase 1 (Homo sapiens, UniProt Q9NZ08); test: inhibition of human ERAP1 enzyme activity – biochemical, cherry-pick, set 2, plate reader, dose response (AID 743314)
[9] = Luminescence Cell-Based Dose Confirmation HTS to Identify Inhibitors of Platelet Dense Granule Release. [Related pubchem assays: 1663 (Primary HTS), 1678 (Summary of Project)]; assay type: functional
[10] = target: T5, Apoptotic protease-activating factor 1 (Homo sapiens, UniProt O14727); assay type: functional
T5 sequence (O14727 whole entry): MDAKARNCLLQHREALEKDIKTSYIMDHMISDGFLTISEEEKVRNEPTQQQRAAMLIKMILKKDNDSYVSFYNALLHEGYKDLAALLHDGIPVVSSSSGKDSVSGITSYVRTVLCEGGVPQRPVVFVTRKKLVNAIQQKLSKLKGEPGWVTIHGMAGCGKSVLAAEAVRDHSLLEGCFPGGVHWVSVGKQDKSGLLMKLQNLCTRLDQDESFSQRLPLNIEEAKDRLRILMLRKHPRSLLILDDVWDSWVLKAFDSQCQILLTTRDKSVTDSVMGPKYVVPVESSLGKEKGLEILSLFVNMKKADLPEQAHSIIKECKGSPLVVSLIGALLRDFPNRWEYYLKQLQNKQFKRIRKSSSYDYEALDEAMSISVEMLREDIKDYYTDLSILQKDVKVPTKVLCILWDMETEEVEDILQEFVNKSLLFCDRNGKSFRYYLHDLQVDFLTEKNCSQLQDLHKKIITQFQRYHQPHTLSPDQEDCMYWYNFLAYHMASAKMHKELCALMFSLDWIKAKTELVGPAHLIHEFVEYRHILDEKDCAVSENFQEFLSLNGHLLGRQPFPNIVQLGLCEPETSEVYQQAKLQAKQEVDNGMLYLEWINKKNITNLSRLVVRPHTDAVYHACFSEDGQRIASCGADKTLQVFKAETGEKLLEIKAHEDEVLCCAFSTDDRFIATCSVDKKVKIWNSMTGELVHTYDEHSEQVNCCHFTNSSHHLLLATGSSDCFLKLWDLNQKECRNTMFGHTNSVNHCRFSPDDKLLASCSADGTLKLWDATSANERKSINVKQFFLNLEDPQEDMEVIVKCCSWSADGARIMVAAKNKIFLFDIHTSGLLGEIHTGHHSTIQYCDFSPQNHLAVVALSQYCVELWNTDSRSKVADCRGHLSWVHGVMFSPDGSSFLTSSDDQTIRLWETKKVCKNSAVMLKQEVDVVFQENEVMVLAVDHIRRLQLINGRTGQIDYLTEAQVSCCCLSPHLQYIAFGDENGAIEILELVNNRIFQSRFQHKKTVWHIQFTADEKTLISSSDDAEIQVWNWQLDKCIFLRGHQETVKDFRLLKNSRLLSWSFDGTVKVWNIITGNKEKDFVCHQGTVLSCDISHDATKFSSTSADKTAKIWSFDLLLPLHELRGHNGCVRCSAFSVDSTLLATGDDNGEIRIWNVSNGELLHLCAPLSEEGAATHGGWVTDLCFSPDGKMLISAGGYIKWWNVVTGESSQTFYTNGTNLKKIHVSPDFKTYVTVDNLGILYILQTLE

Chain of Beta Lactamase (Q932Y6 whole entry): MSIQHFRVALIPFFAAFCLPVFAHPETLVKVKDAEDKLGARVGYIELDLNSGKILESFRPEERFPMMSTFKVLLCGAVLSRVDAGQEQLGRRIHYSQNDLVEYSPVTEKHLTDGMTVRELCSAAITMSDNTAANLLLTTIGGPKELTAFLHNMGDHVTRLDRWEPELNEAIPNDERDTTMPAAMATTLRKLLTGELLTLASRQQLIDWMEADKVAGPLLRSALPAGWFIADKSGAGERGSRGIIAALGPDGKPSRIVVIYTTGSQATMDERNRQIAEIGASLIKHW
Chain of Luciferin 4-monooxygenase (P08659 whole entry): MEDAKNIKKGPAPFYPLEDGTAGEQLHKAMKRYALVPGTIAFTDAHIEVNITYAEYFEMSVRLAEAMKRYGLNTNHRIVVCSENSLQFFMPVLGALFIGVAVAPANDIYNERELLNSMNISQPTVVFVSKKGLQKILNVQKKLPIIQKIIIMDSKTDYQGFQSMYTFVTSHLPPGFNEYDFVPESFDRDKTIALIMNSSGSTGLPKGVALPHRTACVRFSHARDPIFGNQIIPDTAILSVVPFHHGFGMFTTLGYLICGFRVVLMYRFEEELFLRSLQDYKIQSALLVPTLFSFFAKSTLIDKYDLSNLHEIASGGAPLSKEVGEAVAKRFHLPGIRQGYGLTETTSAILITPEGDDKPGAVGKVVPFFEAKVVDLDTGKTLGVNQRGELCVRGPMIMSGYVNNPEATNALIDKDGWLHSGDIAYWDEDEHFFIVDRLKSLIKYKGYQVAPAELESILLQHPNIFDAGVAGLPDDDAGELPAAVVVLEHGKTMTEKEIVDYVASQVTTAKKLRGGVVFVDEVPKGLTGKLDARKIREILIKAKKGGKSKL
Chain of Endoplasmic reticulum aminopeptidase 1 (Q9NZ08 whole entry): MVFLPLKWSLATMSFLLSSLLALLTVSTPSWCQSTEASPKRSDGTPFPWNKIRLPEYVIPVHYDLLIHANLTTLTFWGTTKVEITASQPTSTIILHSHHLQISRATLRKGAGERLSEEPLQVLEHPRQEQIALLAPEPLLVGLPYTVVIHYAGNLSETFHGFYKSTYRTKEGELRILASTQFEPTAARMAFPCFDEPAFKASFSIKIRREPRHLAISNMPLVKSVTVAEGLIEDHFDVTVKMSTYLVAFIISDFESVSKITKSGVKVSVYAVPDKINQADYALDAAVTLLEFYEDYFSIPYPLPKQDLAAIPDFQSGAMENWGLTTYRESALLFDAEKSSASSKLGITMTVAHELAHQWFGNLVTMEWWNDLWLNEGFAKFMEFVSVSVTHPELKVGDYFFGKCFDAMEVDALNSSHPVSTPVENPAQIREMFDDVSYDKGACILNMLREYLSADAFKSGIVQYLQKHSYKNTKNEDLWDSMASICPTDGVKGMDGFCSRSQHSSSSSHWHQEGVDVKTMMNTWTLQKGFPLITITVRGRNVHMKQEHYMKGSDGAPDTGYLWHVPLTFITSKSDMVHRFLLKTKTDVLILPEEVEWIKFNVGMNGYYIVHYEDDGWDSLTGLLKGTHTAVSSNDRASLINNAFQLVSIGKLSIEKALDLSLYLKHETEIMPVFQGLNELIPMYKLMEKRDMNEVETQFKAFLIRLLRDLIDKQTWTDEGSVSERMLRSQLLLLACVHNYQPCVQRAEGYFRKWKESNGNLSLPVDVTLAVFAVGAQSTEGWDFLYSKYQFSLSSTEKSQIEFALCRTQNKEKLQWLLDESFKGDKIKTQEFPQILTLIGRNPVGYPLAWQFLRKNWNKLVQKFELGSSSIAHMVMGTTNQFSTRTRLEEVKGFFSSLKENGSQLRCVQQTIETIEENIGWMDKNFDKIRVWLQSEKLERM

| SMILES | IC50 [1] | IC50 [2] | IC50 [3] | IC50 [4] | IC50 [5] | IC50 [6] | other results |
| --- | --- | --- | --- | --- | --- | --- | --- |
| O=C1CC(/C=C/c2ccccc2)=Nc2ccccc2N1 | 6.55 µM (active) | 33.2 µM (active) | 28.2 µM (active) | 48.1 µM (active) |  |  |  |
| CC(=O)Oc1cccc(N2C(=O)c3cccc4c([N+](=O)[O-])ccc(c34)C2=O)c1 |  |  |  |  | 5.26 µM (active) | 4.5 µM (active) |  |
| COc1ccc(-c2cc3ccc(O)cc3oc2=O)cc1OC |  |  |  |  | > 49.8 µM (inactive) | 5.23 µM (active) | EC50 [7]: 1.23 µM (active); AC50 [8]: 3.21 µM (active); EC50 [9]: 335 nM (active) |
| COc1ccc(-c2cn(CCC(=O)O)c(C)n2)cc1 | 4.75 µM (active) | 4.89 µM (active) | 40.7 µM (active) | 4.56 µM (active) |  |  |  |
| CCN(CC(=O)Nc1c(F)cccc1F)C(=O)Cc1ccsc1 |  |  |  |  |  |  | IC50 [10]: > 100 µM (inactive) |
